One test addresses T1, LHRH receptors (Rattus norvegicus, UniProt P30969).
T1 sequence (P30969 1-327): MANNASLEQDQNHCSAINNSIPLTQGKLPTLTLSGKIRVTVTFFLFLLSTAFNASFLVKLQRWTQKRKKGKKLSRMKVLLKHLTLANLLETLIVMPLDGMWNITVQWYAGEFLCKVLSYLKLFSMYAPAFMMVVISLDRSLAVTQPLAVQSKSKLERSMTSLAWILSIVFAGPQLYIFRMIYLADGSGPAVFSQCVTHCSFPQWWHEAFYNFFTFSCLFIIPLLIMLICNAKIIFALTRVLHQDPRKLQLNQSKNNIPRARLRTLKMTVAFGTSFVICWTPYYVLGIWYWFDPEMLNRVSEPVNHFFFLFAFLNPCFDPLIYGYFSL
The test can be described thus: Radioligand receptor binding assay, rat pituitary membranes. As to conditions: radioiodinated [D-Leu6-des Gly10]-LHRH ethyl amide 50 pM, 2 hours at 4° C., read-out: Receptor Binding pkI (converted). The protocol: The radioligand (50 pM), receptors, and compounds to be tested are coincubated for 2 hours at 4° C. Bound ligand is separated from free ligand via centrifugation and aspiration.

The test system of test [1] is LH concentration in the blood. In words: In vivo LH inhibition in male castrate rats. On the set-up: species or system rat. As to conditions: AUC of log(LHt/LHi) over 24 hours, 30 ug/kg subcutaneous bolus. The procedure:
The compound to be tested is administered at 30 μg/kg subcutaneously by bolus injection to male castrate rats and blood samples are collected periodically over 24 hours. The AUC (area under the curve) of the LH supression data as a function of time is calculated using the formula log (LHt /LHi) wherein LHt is the LH concentration in the blood at time t and LHi is the initial baseline value for the concentration of LH in the blood. The AUC values are negative numbers.

Starred links: 1 amine or outer side, 2 acyl side, 3 side chain; linkers in the order of their positions; H or OH if unused. Non-standard residues stand in square brackets, D forms with d. Residues, ends and D or L forms follow the SMILES beside them. Groups on a side chain read outwards from the residue. *: point of attachment. dPhe(4-Cl) = N[C@H](Cc1ccc(Cl)cc1)C(=O)O; d1Nal = N[C@H](Cc1cccc2ccccc12)C(=O)O; d2Nal = N[C@H](Cc1ccc2ccccc2c1)C(=O)O; Lys(iPr) = CC(C)NCCCC[C@H](N)C(=O)O; NMeY = CN[C@@H](Cc1ccc(O)cc1)C(=O)O; d3Pal = N[C@H](Cc1cccnc1)C(=O)O; NMeL = CN[C@@H](CC(C)C)C(=O)O; Nicotinoyl = O=C(c1cccnc1)*; Morpholide = C1CN(*)CCO1; CO = O=C([*:1])[*:2]; azaGly = NNC(=O)O; Sar = CNCC(=O)O

Results on five molecules are retold here after patent US5110904A (Abbott Laboratories, priority 1990, dated 1992).

Consider `CC(=O)N[C@H](Cc1ccc2ccccc2c1)C(=O)N[C@H](Cc1ccc(Cl)cc1)C(=O)N[C@H](Cc1cccnc1)C(=O)N[C@@H](CO)C(=O)N(C)[C@@H](Cc1ccc(O)cc1)C(=O)N[C@H](CCCCNC(=O)c1cccnc1)C(=O)N[C@@H](CC(C)C)C(=O)N[C@@H](CCCCNC(C)C)C(=O)N1CCC[C@H]1C(=O)N(C)CC(N)=O` [Ex. 44, N-Ac-D-2-Nal-D-4-Cl-Phe-D-3-Pal-Ser-N-Me-Tyr-D-Lys(N-epsilon-nicotinyl)-Leu-Lys(N-epsilon-isopropyl)-Pro-SarNH2] (Ac-[d2Nal][dPhe(4-Cl)][d3Pal]S[NMeY][dK](Nicotinoyl)L[Lys(iPr)]P[Sar]-NH2), for which the Ki at LHRH receptors is 0.0331 nM. Further, the “AUC (24 hr. after 30 ug/kg)” value in test [1] is listed as -571.

Regarding `CC(=O)N(C)CC(=O)N[C@H](Cc1ccc(Cl)cc1)C(=O)N[C@H](Cc1cccc2ccccc12)C(=O)N[C@@H](CO)C(=O)N(C)[C@@H](Cc1ccc(O)cc1)C(=O)N[C@H](CCCCNC(=O)c1cccnc1)C(=O)N[C@@H](CC(C)C)C(=O)N[C@@H](CCCCNC(C)C)C(=O)N1CCC[C@H]1C(=O)N[C@H](C)C(N)=O` [Ex. 63, N-Ac-Sar-D-4-Cl-Phe-D-1-Nal-Ser-N-Me-Tyr-D-Lys(N-epsilon-nicotinyl)-Leu-Lys(N-epsilon-isopropyl)-Pro-D-AlaNH2] (Ac-[Sar][dPhe(4-Cl)][d1Nal]S[NMeY][dK](Nicotinoyl)L[Lys(iPr)]P[dA]-NH2), at LHRH receptors, the Ki was 0.0447 nM. Further, the “AUC (24 hr. after 30 ug/kg)” value in test [1] is -707.

`CC(=O)NNC(=O)N[C@H](Cc1ccc(Cl)cc1)C(=O)N[C@H](Cc1cccc2ccccc12)C(=O)N[C@@H](CO)C(=O)N(C)[C@@H](Cc1ccc(O)cc1)C(=O)N[C@H](CCCCNC(=O)c1cccnc1)C(=O)N[C@@H](CC(C)C)C(=O)N[C@@H](CCCCNC(C)C)C(=O)N1CCC[C@H]1C(=O)N[C@H](C)C(N)=O` [Ex. 65, N-Ac-alpha-Azagly-D-4-Cl-Phe-D-1-Nal-Ser-N-Me-Tyr-D-Lys(N-epsilon-nicotinyl)-Leu-Lys(N-epsilon-isopropyl)-Pro-D-AlaNH2] (Ac-[azaGly][dPhe(4-Cl)][d1Nal]S[NMeY][dK](Nicotinoyl)L[Lys(iPr)]P[dA]-NH2): the Ki at LHRH receptors was 0.0575 nM. The “AUC (24 hr. after 30 ug/kg)” value in test [1] was -1114.

For the molecule `CC(=O)N[C@H](Cc1ccc2ccccc2c1)C(=O)N[C@H](Cc1ccc(Cl)cc1)C(=O)N[C@H](Cc1cccnc1)C(=O)N[C@@H](CO)C(=O)N(C)[C@@H](Cc1ccc(O)cc1)C(=O)N[C@H](CCCCNC(=O)c1cccnc1)C(=O)N(C)[C@@H](CC(C)C)C(=O)N[C@@H](CCCCNC(C)C)C(=O)N1CCC[C@H]1C(=O)N[C@H](C)C(N)=O` [Ex. 67, N-Ac-D-2-Nal-D-4-Cl-Phe-D-3-Pal-Ser-N-Me-Tyr-D-Lys(N-epsilon-nicotinyl)-N-Me-Leu-Lys(N-epsilon-isopropyl)-Pro-D-AlaNH2] (Ac-[d2Nal][dPhe(4-Cl)][d3Pal]S[NMeY][dK](Nicotinoyl)[NMeL][Lys(iPr)]P[dA]-NH2), on LHRH receptors, the Ki was 0.0302 nM. For the same molecule, in test [1], the “AUC (24 hr. after 30 ug/kg)” value is -400.

For `CC(=O)N[C@H](Cc1ccc2ccccc2c1)C(=O)N[C@H](Cc1ccc(Cl)cc1)C(=O)N[C@H](Cc1cccnc1)C(=O)N[C@@H](CO)C(=O)N(C)[C@@H](Cc1ccc(O)cc1)C(=O)N[C@H](CCCCNC(=O)N1CCOCC1)C(=O)N[C@@H](CC(C)C)C(=O)N[C@@H](CCCCNC(C)C)C(=O)N1CCC[C@H]1C(=O)N[C@H](C)C(N)=O` [Ex. 69] (Ac-[d2Nal][dPhe(4-Cl)][d3Pal]S[NMeY][dK]([CO-Morpholide])L[Lys(iPr)]P[dA]-NH2), the Ki at LHRH receptors is 0.017 nM. For the same molecule, the “AUC (24 hr. after 30 ug/kg)” value in test [1] is reported as -467.
